These are literature values, as cited in patent publication US6515132B2, “Process for the preparation of rosiglitazone maleate” (priority 2000, dated 2003).

Molecules are shown by their SMILES.

The conditions of this series: dose given in diet; comparative activity data for thiazolidinediones being clinically progressed.

For `O=C1NC(=O)C(Cc2ccc3c(c2)CC[C@H](Cc2ccccc2)O3)S1` (stereo partly drawn) [Englitazone], the Minimum effective dose is given as 200 μmol/kg diet.
`CN(CCOc1ccc(CC2SC(=O)NC2=O)cc1)c1ccccn1.O=C(O)/C=C\C(=O)O` (stereo not drawn) [Rosiglitazone maleate, 5-[4-[2-(N-methyl-N-(2-pyridyl)amino)ethoxy]benzyl]thiazolidine-2,4-dione maleate]: the Minimum effective dose was 3 μmol/kg diet.
With `CN(CCOc1ccc(CC2SC(=O)NC2=O)cc1)c1ccccn1` (stereo not drawn) [Rosiglitazone, 5-[4-[2-(N-methyl-N-(2-pyridyl)amino)ethoxy]benzyl]thiazolidine-2,4-dione], the Minimum effective dose is recorded as 3 μmol/kg diet.
